The results in this text go back to patent US7504425B2 (priority 2002, dated 2009).

In the test the target is Bacillus anthracis lethal factor (Bacillus anthracis, UniProt P15917). In words: biochemical.

Each structure is given as a SMILES string.

Chain of Bacillus anthracis lethal factor (P15917 34-809 limits assumed): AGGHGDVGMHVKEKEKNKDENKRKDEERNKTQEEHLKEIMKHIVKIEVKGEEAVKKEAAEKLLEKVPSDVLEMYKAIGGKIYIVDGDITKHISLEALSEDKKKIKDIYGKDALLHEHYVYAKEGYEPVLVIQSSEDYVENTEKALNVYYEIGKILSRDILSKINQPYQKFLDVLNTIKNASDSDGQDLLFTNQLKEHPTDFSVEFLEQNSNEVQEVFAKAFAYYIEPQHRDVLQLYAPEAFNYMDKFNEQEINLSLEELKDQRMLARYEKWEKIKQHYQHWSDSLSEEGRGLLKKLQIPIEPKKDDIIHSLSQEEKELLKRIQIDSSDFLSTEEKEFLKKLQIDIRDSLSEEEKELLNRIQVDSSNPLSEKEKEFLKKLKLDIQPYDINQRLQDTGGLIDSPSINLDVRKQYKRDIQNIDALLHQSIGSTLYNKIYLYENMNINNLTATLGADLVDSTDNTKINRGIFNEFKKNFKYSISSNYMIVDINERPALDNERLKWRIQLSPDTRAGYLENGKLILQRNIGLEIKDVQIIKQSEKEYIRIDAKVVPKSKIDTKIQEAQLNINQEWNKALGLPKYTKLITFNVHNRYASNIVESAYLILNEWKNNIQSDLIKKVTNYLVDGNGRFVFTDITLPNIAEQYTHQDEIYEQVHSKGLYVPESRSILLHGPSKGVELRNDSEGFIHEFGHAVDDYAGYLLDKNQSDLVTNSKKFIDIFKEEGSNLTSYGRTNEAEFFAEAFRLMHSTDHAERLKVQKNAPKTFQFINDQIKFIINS

For orientation: IC50 means the concentration that inhibits the measured activity by half. A higher IC50 goes with weaker potency in that assay. `Cc1cc(S(=O)(=O)N[C@@H](C(=O)NO)C2CCOCC2)ccc1F` came in with an IC50 of 60 nM.
